Test results taken from patent US9328397B2, “Removal of arsenic using a dissimilatory arsenic reductase” (UNIWERSYTET WARSZAWSKI, priority 2013, dated 2016).

Tests used:
[1] = test system: Shewanella sp. O23S strain; assay: Minimal inhibitory concentration (MIC) of heavy metals in LB medium; assay type: cell-based; settings: 24 hours at 22° C., OD600
[2] = test system: Shewanella sp. O23S strain; assay: Dissimilatory reduction of 2.5 mM sodium arsenate in the presence of heavy metals; assay type: cell-based; settings: minimal R1-R2 medium; for Reduction of arsenic in the presence of the metal (maximum concentration of metals allowing for dissimilatory reduction of 2.5 mM sodium arsenate): 5 mM sodium lactate

Which MIC value [1] does the source give for `O.O.O.O.O.O.O.O=S(=O)([O-])[O-].[Co+2]` [Co(II), CoSO4•7H2O] here?
The MIC value was 2 mM.

And the “Reduction of arsenic in the presence of the metal (maximum concentration of metals allowing for dissimilatory reduction of 2.5 mM sodium arsenate)” value (shortened to “Reduction of arsenic”) [2]?
Its value is 2 mM.

How did the MIC value [1] turn out when `O.O.O.O.O.O.O.O.O.O.O=[Se](=O)([O-])[O-].[Na+].[Na+]` [Se(VI), Na2SeO4•10H2O] was run?
The MIC value was over 20 mM.

And the “Reduction of arsenic” value [2]?
The value was 5 mM.

With `O.O.O.O.O.O.O.O.O.O.O.O.O.O.O.O.O.O.O=S(=O)([O-])[O-].O=S(=O)([O-])[O-].O=S(=O)([O-])[O-].[Cr+3].[Cr+3]` [Cr(III), Cr2(SO4)3•18H2O] as the compound, how does the MIC value [1] read?
Its MIC value is 5 mM.

What about the “Reduction of arsenic” value [2] of the same compound?
Its value is 3 mM.

Which MIC value [1] does the source give for `O.O.O.O.O.O.O.O.O=S(=O)([O-])[O-].[Cd+2]` [Cd(II), CdSO4•8H2O] here?
The MIC value was 1 mM.

What about the “Reduction of arsenic” value [2] of the same compound?
Its value is 1 mM.

`O.O.O.O.O.O.O.O=S(=O)([O-])[O-].[Zn+2]` [Zn(II), ZnSO4•7H20] was tested. Which MIC value [1] did it give?
Its MIC value is 3 mM.

And the “Reduction of arsenic” value [2]?
Its value is 2 mM.

Which MIC value [1] does the source give for `O.O=S(=O)([O-])[O-].[Mn+2]` [Mn(II), MnSO4•H2O] here?
The MIC value was over 20 mM.

And the “Reduction of arsenic” value [2]?
Its value is over 5 mM.

For `[Na+].[O]=[V](=[O])[O-]` [V(V), NaVO3], which MIC value [1] is on record?
The MIC value was over 20 mM.

What about the “Reduction of arsenic” value [2] of the same compound?
Its value is over 5 mM.

`O.O.O.O.O.O=S(=O)([O-])[O-].[Cu+2]` [Cu(II), CuSO4•5H2O] was tested. Which MIC value [1] did it give?
Its MIC value is 3 mM.

And the “Reduction of arsenic” value [2]?
Its value is 2 mM.

`[Fe+3]` [Fe(III)] was tested. Which MIC value [1] did it give?
The MIC value was 5 mM.

What about the “capability of dissimilatory reduction in the presence of the metal” value [2] of the same compound?
The value was “not demonstrated”.
